Our source for the Fecal bile acids and Serum bile acids values is patent publication US20130108573A1, “Bile Acid Recycling Inhibitors for Treatment of Hypercholemia and Cholestatic Liver Disease” (Lumena Pharmaceuticals, Inc., priority 2011, published 2013).

Each structure is given as a SMILES string.

The experiment concerns Serum Bile Acid and Fecal Bile Acid. Kind of experiment: Phase 1 ascending multiple oral dose study of LUM001 in healthy adult subjects: serum and fecal bile acid analysis. Type of experiment: in vivo, human. The following applies: ascending multiple oral doses, 28 days, vs placebo. As for the experimental part: This Phase 1 study was a randomized, double-blind, placebo-controlled study of ascending multiple oral doses of LUM001 in healthy, adult subjects. This study was conducted at a single center. There were 13 LUM001 dosing panels: 10, 20, 60, 100, and 20 mg every morning (qAM) (2) (i.e., the regimen was tested a second time in the study), 5 mg every evening (qPM), 0.5, 1, 2.5, 5, 2.5 (2), 5 (2), and 0.5 to 5 mg qAM dose titration. Most of the dosing panels included subjects treated with matching placebo. Shown in the graphs are data from the 0.5 (n=16), 1.0 (n=8), 2.5 (n=8), 5.0 (n=8) and 10 (n=8) mg dosing groups. […]
SBA were analyzed as part of the routine clinical analysis of the serum samples collected at each time point.
Fecal samples were collected for all panels except the dose-titration panel, 2.5 (2) and 5 mg (2), on Days 9 through 14 and 23 through 28 (data shown in FIG. 4). Twenty-four hour FBA excretions were quantified by Pharmacia for Days 9 through 14 and 23 through 28. […] The weight of each 24-hour fecal collection was recorded on the CRFs. […]
An aliquot for each 24-hour fecal sample collected on Days 23 through 28 was combined, homogenized, and analyzed for bile acid species concentrations by ANAPHARM. The fecal bile acid species evaluated include chenodeoxycholic acid, cholic acid, deoxycholic acid, and lithocholic acid.

`CCCCC1(CCCC)CS(=O)(=O)c2ccc(N(C)C)cc2[C@@H](c2ccc(OCc3ccc(C[N+]45CCN(CC4)CC5)cc3)cc2)[C@H]1O` [LUM001]: the Fecal bile acids entry is reported as “significant increase” and the Serum bile acids entry is on record as “significant reduction”.
